US20050244490A1, “Dosing methods for beta-D-2',3'-dideoxy-2',3'-didehydro-5-fluorocytidine antiviral therapy” (priority 2003, published 2005)
pKi: −log10 of the molar value. Values joined by “and” are separate entries in the source; they are usually repeats but may differ in a detail not shown here. Equal entries are not always repeated. Where two headings read alike, the source gives them in different places.

Assays:
[1] = Pharmacokinetics in the rhesus monkey; format: in vivo
[2] = Food effect, fed versus fasted crossover (Cohort 4); settings: for AUC / AUC(0-inf) / CL/F / Cmax / half-life / Tmax: human, plasma, oral, 100 mg, PART B; for AUC: AUC(0-τ); for CL/F: CLtot/F; for half-life: t1/2 λz
[3] = tested on: mouse primary bone marrow cells; assay: Mitochondrial toxicity in primary bone marrow cells; format: cell-based; settings: concentrations <1 mM
in vivo = settings: rat
wild type HIV-RT = biological target: T1, wild type HIV-RT (Human immunodeficiency virus type 1 group M subtype B, UniProt P04585); assay: Ki / Km for wild type HIV-RT; format: biochemical, HIV-1
T1 construct: The Ki value for β-D-D4FC-TP for wild type HIV-RT

HIV viral load = assay: Viral load decline on repeated dosing, β-D-D4FC and competing nucleosides; format: in vivo; settings: 50 mg QD, duration of dosing 10
plasma HIV-1 RNA = format: in vivo; settings: for reduction of viral load: 48 hours
Protocol: The study consisted of a double-blind, randomized, placebo-controlled, three-period crossover, dose escalation design in HIV-infected male subjects. Five dose levels (10, 25, 50, 100, and 200 mg) were administered in three cohort studies. Seven days elapsed between the end of one cohort and the start of the next dosing period.

HepG2 cells = assay: Mitochondrial toxicity testing (mitDNA, rRNA, lactic acid); format: cell-based; settings: 14 days; for % Change in Lactic Acid: normalized for cytotoxicity
Protocol: HepG2 cells were incubated for 14 days with the active agent. and mitDNA and rRNA levels were determined by quantitative real-time PCR. The results are tabulated in […]

[4] = 100 MG FED, coated tablet after high fat meal

## Nc1nc(=O)n(C2C=CC(CO)O2)cc1F [β-D-D4FC, β-D-2′,3′-Didehydro-2′,3′-dideoxy-5-fluorocytidine]
[1]; compared with AZT and 3TC
  plasma half-life: longer than either AZT or 3TC
[1]; rhesus monkey, in vivo
  clearance of parent: low clearance
[2]; 100 mg coated tablets, high fat meal
  Cmax and AUC values in the fed regimen as fraction of the fasted regimen: less than 1/10
[2]; 100 MG FASTED, coated tablet
  AUC: 6110 ng·h/mL
  AUC(0-inf): 6170 ng·h/mL
  CL/F: 478 mL/min
  Cmax: 1160 ng/mL
  half-life: 8.61 h
  Tmax: 1.83 h
[2]; [4]
  AUC: 542 ng·h/mL
  AUC(0-inf): 643 ng·h/mL
  CL/F: 3380 mL/min
  Cmax: 90 ng/mL
  half-life: 4.38 h
  Tmax: 2.5 h
[3]
  mitochondrial toxicity: not associated with mitochondrial toxicity
In vivo; 15 mg/kg
  AUC at 28 d: 70 µM·h
  Cmax at 28 d: 17 µM
In vivo; 45 mg/kg
  AUC at 28 d: 161 µM·h
  Cmax at 28 d: 44 µM
Wild type HIV-RT
  pKi: 7.00
HIV viral load
  Viral Load Decline (log): −1.67 log
Plasma HIV-1 RNA; 10 mg
  drop in viral load, subject with mutant virus L41+N103+C181+W210+D215: 0.61 log10
Plasma HIV-1 RNA; 10 mg dose
  reduction of viral load: 0.42±0.2 log10 and 0.42 log10
Plasma HIV-1 RNA; 10 mg, 12 h
  Change in Plasma HIV-1 RNA: 0.05 ± 0.09 log10
Plasma HIV-1 RNA; 10 mg, 24 h
  Change in Plasma HIV-1 RNA: −0.12 ± 0.14 log10
Plasma HIV-1 RNA; 10 mg, 48 h
  Change in Plasma HIV-1 RNA: −0.42 ± 0.20 log10
Plasma HIV-1 RNA; 25 mg
  drop in viral load, subject with mutant virus L41+N103+C181+W210+D215: 0.43 log10
Plasma HIV-1 RNA; 25 mg, 12 h
  Change in Plasma HIV-1 RNA: 0.03 ± 0.09 log10
Plasma HIV-1 RNA; 25 mg, 24 h
  Change in Plasma HIV-1 RNA: −0.13 ± 0.10 log10
Plasma HIV-1 RNA; 25 mg, 48 h
  Change in Plasma HIV-1 RNA: −0.34 ± 0.26 log10
Plasma HIV-1 RNA; 100 mg, 12 h
  Change in Plasma HIV-1 RNA: −0.03 ± 0.08 log10
Plasma HIV-1 RNA; 100 mg, 24 h
  Change in Plasma HIV-1 RNA: −0.15 ± 0.14 log10
Plasma HIV-1 RNA; 100 mg, 48 h
  Change in Plasma HIV-1 RNA: −0.44 ± 0.17 log10
Plasma HIV-1 RNA; 100 mg
  reduction of viral load: 0.44±0.17
Plasma HIV-1 RNA; 200 mg, 12 h
  Change in Plasma HIV-1 RNA: −0.02 ± 0.24 log10
Plasma HIV-1 RNA; 200 mg, 24 h
  Change in Plasma HIV-1 RNA: −0.06 ± 0.22 log10
Plasma HIV-1 RNA; 200 mg, 48 h
  Change in Plasma HIV-1 RNA: −0.27 ± 0.28 log10
Plasma HIV-1 RNA; 50s mg (solution), 12 h
  Change in Plasma HIV-1 RNA: 0.00 ± 0.00 log10
Plasma HIV-1 RNA; 50s mg (solution), 24 h
  Change in Plasma HIV-1 RNA: −0.11 ± 0.07 log10
Plasma HIV-1 RNA; 50s mg (solution), 48 h
  Change in Plasma HIV-1 RNA: −0.44 ± 0.02 log10
Plasma HIV-1 RNA; 50t mg (tablet), 12 h
  Change in Plasma HIV-1 RNA: 0.05 ± 0.07 log10
Plasma HIV-1 RNA; 50t mg (tablet), 24 h
  Change in Plasma HIV-1 RNA: −0.08 ± 0.07 log10
Plasma HIV-1 RNA; 50t mg (tablet), 48 h
  Change in Plasma HIV-1 RNA: −0.46 ± 0.25 log10
Plasma HIV-1 RNA; 24 hour time point
  average reduction of viral load: 0.11±0.11
Plasma HIV-1 RNA; all dose levels, up to 48 hours
  mean reduction of viral load after a single oral dose: 0.4±0.2 log10 and 0.42±0.2 log10
Plasma HIV-1 RNA; various dosage levels, 24 and 48 hours
  mean reduction of viral load after a single oral dose: approximately 40%
HepG2 cells; 1 μM
  % Change in mitDNA: 0%
  % Change in rRNA: 0%
  % Change in Lactic Acid: +12%
HepG2 cells; 10 μM
  % Change in mitDNA: −1.6%
  % Change in rRNA: 0%
  % Change in Lactic Acid: −2%
